For one test, the system named is Human venous whole blood. Nature of the test: Human whole blood IFN-γ assay.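 Also: blood from healthy donors exposed to compound for 1 h before stimulation with anti-CD3 and anti-CD28 at 1 µg/mL each, IFN-γ quantified in supernatant by AlphaLISA.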 To be noted: human whole blood, normalized to 3 μM reference compound with anti-CD3 plus anti-CD28 as 100% activation, read-out: INFg Whole Blood Normalized Agonist EC50. The test is classed as cell-based.
In another test the target is T1, human DGKζ (Homo sapiens, UniProt Q13574).
T1 construct: TVMV protease cleavage site (C); Hexa-His (C); made in house; host or cells: Sf9 insect cells (baculovirus, Bac-to-Bac)
In words: DGKζ LIPGLO assay (extruded liposome substrate), in vitro DGK inhibition. The following applies: liposome (LIPGLO) assay; read-out: DGKz LIPGLO IC50. It counts as biochemical.

The target in the next test is T2, human DGKα (Homo sapiens, UniProt P23743).
T2 construct: TVMV protease cleavage site (C); Hexa-His (C); made in house; host or cells: Sf9 insect cells (baculovirus, Bac-to-Bac)
Nature of the test: DGKα LIPGLO assay (extruded liposome substrate), in vitro DGK inhibition. To be noted: liposome (LIPGLO) assay; read-out: DGKa LIPGLO IC50. The test is classed as biochemical.

What is called EC50 is the concentration that produces a half-maximal response. A word on the IC50: it is the concentration at which inhibition is half-maximal.

Like-named read-outs stand apart in the source and are kept apart here.

T1 sequence (Q13574 with tags, fused parts or gaps isoform Q13574-4): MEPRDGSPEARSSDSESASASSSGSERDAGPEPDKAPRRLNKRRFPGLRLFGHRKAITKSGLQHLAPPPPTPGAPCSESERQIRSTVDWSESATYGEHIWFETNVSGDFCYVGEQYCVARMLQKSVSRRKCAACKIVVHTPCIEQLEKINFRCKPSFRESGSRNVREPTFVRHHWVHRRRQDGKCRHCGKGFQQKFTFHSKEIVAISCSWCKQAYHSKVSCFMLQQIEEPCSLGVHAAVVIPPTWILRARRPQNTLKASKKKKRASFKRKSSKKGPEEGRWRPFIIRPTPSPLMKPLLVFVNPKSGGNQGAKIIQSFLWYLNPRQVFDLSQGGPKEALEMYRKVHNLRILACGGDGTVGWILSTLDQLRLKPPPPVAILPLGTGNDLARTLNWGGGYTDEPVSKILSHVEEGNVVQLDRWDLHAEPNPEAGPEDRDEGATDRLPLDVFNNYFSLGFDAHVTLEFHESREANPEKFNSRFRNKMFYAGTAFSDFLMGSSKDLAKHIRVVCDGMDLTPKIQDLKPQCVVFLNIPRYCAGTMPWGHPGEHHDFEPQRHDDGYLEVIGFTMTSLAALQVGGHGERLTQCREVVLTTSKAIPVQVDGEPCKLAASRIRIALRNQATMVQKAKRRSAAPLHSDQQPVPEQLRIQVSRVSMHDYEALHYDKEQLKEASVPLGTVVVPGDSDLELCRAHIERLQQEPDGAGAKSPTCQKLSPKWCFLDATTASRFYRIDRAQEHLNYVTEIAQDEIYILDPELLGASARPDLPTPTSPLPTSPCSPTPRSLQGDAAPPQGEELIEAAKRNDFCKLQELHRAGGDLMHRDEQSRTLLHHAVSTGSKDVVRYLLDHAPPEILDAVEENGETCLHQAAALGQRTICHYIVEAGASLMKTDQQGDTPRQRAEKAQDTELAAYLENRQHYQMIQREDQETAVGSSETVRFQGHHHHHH
T2 sequence (P23743 with tags, fused parts or gaps): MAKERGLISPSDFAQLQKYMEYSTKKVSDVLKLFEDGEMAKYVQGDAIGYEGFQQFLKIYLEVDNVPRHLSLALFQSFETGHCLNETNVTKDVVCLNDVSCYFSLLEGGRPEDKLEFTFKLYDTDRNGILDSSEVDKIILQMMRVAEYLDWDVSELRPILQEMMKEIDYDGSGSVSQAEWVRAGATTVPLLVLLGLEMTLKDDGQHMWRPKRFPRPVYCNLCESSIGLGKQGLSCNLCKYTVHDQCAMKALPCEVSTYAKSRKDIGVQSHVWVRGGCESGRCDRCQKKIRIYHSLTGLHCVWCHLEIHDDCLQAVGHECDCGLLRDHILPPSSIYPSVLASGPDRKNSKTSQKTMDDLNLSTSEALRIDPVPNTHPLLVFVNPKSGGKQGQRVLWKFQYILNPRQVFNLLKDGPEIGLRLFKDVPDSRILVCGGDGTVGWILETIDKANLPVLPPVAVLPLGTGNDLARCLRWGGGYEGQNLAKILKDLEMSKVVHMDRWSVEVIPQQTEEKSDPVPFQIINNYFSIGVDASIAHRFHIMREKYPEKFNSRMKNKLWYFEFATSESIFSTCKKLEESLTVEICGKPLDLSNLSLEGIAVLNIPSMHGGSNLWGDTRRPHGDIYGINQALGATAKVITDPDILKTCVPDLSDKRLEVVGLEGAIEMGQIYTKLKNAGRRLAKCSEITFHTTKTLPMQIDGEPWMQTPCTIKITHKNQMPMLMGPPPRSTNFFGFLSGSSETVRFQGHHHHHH
Experimental for Human venous whole blood: Human Whole Blood IFN-γ Assay
Human venous whole blood (22.5 μL per well), obtained from healthy donors, was pre-treated with compounds for one hour at 37° C. in a humidified 95% air/5% CO2 incubator. The blood was stimulated with 2.5 μL anti-human CD3 and anti-CD28 mAb at a final concentration of 1 μg/mL each for 24 hours at 37° C. IFN-γ in the supernatants was measured using AlphLISA kit (Cat # AL217).

As to `C[C@@H]1CN(c2c(C#N)c(=O)n(C)c3ccc(C#N)nc23)CCN1C(c1ccc(F)cc1)c1cn(C)cn1` (single isomer, unassigned) [Example 1027], the EC50 in the test with Human venous whole blood is 7.3 µM. Further, the IC50 at human DGKζ came to 2.2 µM; on human DGKα, 29 µM.

As for `C[C@@H]1CN(c2c(C#N)c(=O)n(C)c3ccc(C#N)nc23)CCN1C(c1ccc(F)cc1)c1nc(C2CC2)no1` (single isomer, unassigned) [Example 1029], the EC50 in the test on Human venous whole blood was found to be 3.6 µM. Further, the 50% inhibitory concentration (IC50) on human DGKζ stood at 2.1 µM; on human DGKα it was 0.45 µM.

Consider `C[C@@H]1CN(c2c(C#N)c(=O)n(C)c3ccc(C#N)nc23)CCN1C(c1ccc(F)cc1)c1nc(C2CC2)no1` (single isomer, unassigned) [Example 1030], for which the EC50 with Human venous whole blood was 0.67 µM. Also, the IC50 stood at 1.1 µM at human DGKζ and 2.2 µM at human DGKα.

Regarding `CC[C@H]1CN(C(c2cccc(F)c2)c2ccc(F)cn2)[C@H](CC)CN1c1cc(=O)n(C)c2ccc(C#N)nc12` (single isomer, unassigned) [Example 1041], the EC50 with Human venous whole blood (Homo sapiens, 24 h) is 0.23 µM. Further, the IC50 was determined as 0.043 µM on human DGKζ and 0.036 µM at human DGKα.

With `CC[C@H]1CN(C(c2cccc(F)c2)c2ccc(F)cn2)[C@H](CC)CN1c1cc(=O)n(C)c2ccc(C#N)nc12` (single isomer, unassigned) [Example 1042], the EC50 in the test with Human venous whole blood was found to be 0.13 µM. The IC50 is 0.063 µM at human DGKζ and 0.17 µM at human DGKα.

On to `CC[C@H]1CN(C(c2ccc(F)cc2)c2ccccn2)[C@H](CC)CN1c1cc(=O)n(C)c2ccc(C#N)nc12` (single isomer, unassigned) [Example 1043], for which the EC50 in the test with Human venous whole blood (Homo sapiens, 24 h) turned out to be 0.39 µM. Further, the IC50 at human DGKζ is 0.29 µM; at human DGKα, 0.049 µM.

For the molecule `CC[C@H]1CN(C(c2ccc(F)cc2)c2cccc(C(F)(F)F)n2)[C@H](CC)CN1c1cc(=O)n(C)c2ccc(C#N)nc12` (single isomer, unassigned) [Example 1045], in the test with Human venous whole blood (Homo sapiens, 24 h), the EC50 worked out at 0.17 µM. The IC50 on human DGKζ was 0.12 µM; at human DGKα, 0.56 µM.

`CC[C@H]1CN(C(c2ccc(F)cc2)c2cccc(C(F)(F)F)n2)[C@H](CC)CN1c1cc(=O)n(C)c2ccc(C#N)nc12` (single isomer, unassigned) [Example 1046]: the EC50 with Human venous whole blood worked out at 0.14 µM. Further, the IC50 on human DGKζ is 0.054 µM; at human DGKα, 0.09 µM.

Regarding `CC[C@H]1CN(C(C)c2ccc(F)cc2)[C@H](CC)CN1c1cc(=O)n(C)c2ccc(C#N)nc12` (single isomer, unassigned) [Example 1049], the half-maximal effective concentration (EC50) in the test on Human venous whole blood was determined as 0.13 µM. Moreover, the IC50 stood at 0.042 µM on human DGKζ and 0.015 µM at human DGKα.

Turning to `CC[C@H]1CN(C(C)c2ccc(F)cc2)[C@H](CC)CN1c1cc(=O)n(C)c2ccc(C#N)nc12` (single isomer, unassigned) [Example 1050], the EC50 in the test on Human venous whole blood worked out at 4.4 µM. In addition, the IC50 on human DGKζ came out at 0.9 µM; at human DGKα it was 0.51 µM.

Turning to `CC[C@H]1CN(C(C)c2ccc(C(F)(F)F)cc2)[C@H](CC)CN1c1cc(=O)n(C)c2ccc(C#N)nc12` (single isomer, unassigned) [Example 1051], the EC50 with Human venous whole blood is 0.042 µM. Moreover, the IC50 at human DGKζ stood at 0.21 µM; at human DGKα, 0.27 µM.

With `CC[C@H]1CN(C(C)c2ccc(C(F)(F)F)cc2)[C@H](CC)CN1c1cc(=O)n(C)c2ccc(C#N)nc12` (single isomer, unassigned) [Example 1052], in the test on Human venous whole blood, the concentration giving a half-maximal response (EC50) stood at 0.19 µM. Further, the IC50 at human DGKζ worked out at 2 µM; at human DGKα it was 2.5 µM.

On to `CC[C@H]1CN(C(C)c2ccc(OC(F)(F)F)cc2)[C@H](CC)CN1c1cc(=O)n(C)c2ccc(C#N)nc12` (single isomer, unassigned) [Example 1053], for which the EC50 in the test on Human venous whole blood is 0.21 µM. Further, the IC50 was determined as 0.14 µM at human DGKζ and 0.021 µM at human DGKα.

As for `CC[C@H]1CN(C(C)c2ccc(OC(F)(F)F)cc2)[C@H](CC)CN1c1cc(=O)n(C)c2ccc(C#N)nc12` (single isomer, unassigned) [Example 1054], the EC50 in the test with Human venous whole blood stood at 2.7 µM. Besides, the IC50 is 0.59 µM on human DGKζ and 0.47 µM at human DGKα.

Regarding `CC[C@H]1CN(C(C)c2ccc(F)cc2F)[C@H](CC)CN1c1cc(=O)n(C)c2ccc(C#N)nc12` (single isomer, unassigned) [Example 1055], the EC50 with Human venous whole blood turned out to be 0.016 µM. In addition, the IC50 at human DGKζ stood at 0.016 µM; on human DGKα it was 0.017 µM.

With `CC[C@H]1CN(C(C)c2ccc(F)cc2F)[C@H](CC)CN1c1cc(=O)n(C)c2ccc(C#N)nc12` (single isomer, unassigned) [Example 1056], in the test on Human venous whole blood, the EC50 worked out at 0.58 µM. The IC50 at human DGKζ was determined as 0.59 µM; at human DGKα it was 0.88 µM.

Turning to `CCC(c1ccc(OC(F)(F)F)cc1)N1C[C@H](CC)N(c2cc(=O)n(C)c3ccc(C#N)nc23)C[C@H]1CC` (single isomer, unassigned) [Example 1060], in the test with Human venous whole blood (Homo sapiens, 24 h), the EC50 came out at 2.5 µM. In addition, the figures for the IC50 at human DGKζ and at human DGKα were 0.63 µM and 0.34 µM, respectively.

For the molecule `CC[C@H]1CN(C(c2ccc(F)cc2)c2cocn2)[C@H](CC)CN1c1cc(=O)n(C)c2ccc(C#N)nc12` (single isomer, unassigned) [Example 1068], in the test with Human venous whole blood, the EC50 amounted to 0.25 µM. Further, the IC50 on human DGKζ stood at 0.092 µM; on human DGKα it was 0.043 µM.

With `CC[C@H]1CN(C(c2ccc(F)cc2)c2cocn2)[C@H](CC)CN1c1cc(=O)n(C)c2ccc(C#N)nc12` (single isomer, unassigned) [Example 1069], the concentration for a half-maximal effect (EC50) with Human venous whole blood stood at 2.1 µM. The IC50 turned out to be 0.91 µM at human DGKζ and 0.06 µM on human DGKα.

In the case of `CC[C@H]1CN(C(c2ccc(F)cc2)c2cscn2)[C@H](CC)CN1c1cc(=O)n(C)c2ccc(C#N)nc12` (single isomer, unassigned) [Example 1070], the EC50 with Human venous whole blood came out at 1.1 µM. Besides, the IC50 on human DGKζ stood at 0.18 µM; at human DGKα, 0.013 µM.

Regarding `CC[C@H]1CN(C(c2ccc(F)cc2)c2cscn2)[C@H](CC)CN1c1cc(=O)n(C)c2ccc(C#N)nc12` (single isomer, unassigned) [Example 1071], the EC50 with Human venous whole blood is 0.19 µM. The IC50 came out at 0.044 µM on human DGKζ and 0.014 µM at human DGKα.

In the case of `CC[C@H]1CN(C(c2ccc(F)cc2)c2ccon2)[C@H](CC)CN1c1cc(=O)n(C)c2ccc(C#N)nc12` (single isomer, unassigned) [Example 1072], the EC50 in the test with Human venous whole blood was 0.77 µM. Further, the half-maximal inhibitory concentration (IC50) is 0.75 µM at human DGKζ and 0.1 µM at human DGKα.

Consider `CC[C@H]1CN(C(c2ccc(F)cc2)c2ccon2)[C@H](CC)CN1c1cc(=O)n(C)c2ccc(C#N)nc12` (single isomer, unassigned) [Example 1073], for which the EC50 with Human venous whole blood came to 0.21 µM. The IC50 is 0.12 µM at human DGKζ and 0.033 µM on human DGKα.

Turning to `CC[C@H]1CN(C(c2ccc(F)cc2)c2cc(C3CC3)on2)[C@H](CC)CN1c1cc(=O)n(C)c2ccc(C#N)nc12` (single isomer, unassigned) [Example 1074], the concentration giving a half-maximal response (EC50) in the test on Human venous whole blood (Homo sapiens, 24 h) is 0.042 µM. The results for the 50% inhibitory concentration (IC50) on human DGKζ and on human DGKα were 0.047 µM and 0.044 µM, respectively.

For the molecule `CC[C@H]1CN(C(c2ccc(F)cc2)c2cc(C3CC3)on2)[C@H](CC)CN1c1cc(=O)n(C)c2ccc(C#N)nc12` (single isomer, unassigned) [Example 1075], the EC50 in the test on Human venous whole blood turned out to be 0.037 µM. Besides, the IC50 came to 0.027 µM on human DGKζ and 0.011 µM at human DGKα.

As for `CC[C@@H]1CN(c2cc(=O)n(C)c3ccc(C#N)nc23)[C@@H](C)CN1C(C)c1ccc(F)cc1` (single isomer, unassigned) [Example 1083], the EC50 in the test with Human venous whole blood worked out at 0.075 µM. For the same molecule, the IC50 on human DGKζ turned out to be 0.079 µM; at human DGKα it was 0.037 µM.

For the molecule `CC[C@@H]1CN(c2cc(=O)n(C)c3ccc(C#N)nc23)[C@@H](C)CN1C(C)c1ccc(F)cc1` (single isomer, unassigned) [Example 1084], the EC50 in the test on Human venous whole blood came out at 2.6 µM. The results for the concentration for half-maximal inhibition (IC50) on human DGKζ and at human DGKα were 5 µM and 1.7 µM, respectively.

For `CC[C@@H]1CN(c2cc(=O)n(C)c3ccc(C#N)nc23)[C@@H](C)CN1C(C)c1ccc(C(F)(F)F)cc1F` (single isomer, unassigned) [Example 1085], the EC50 in the test with Human venous whole blood turned out to be 0.16 µM. Also, the 50% inhibitory concentration (IC50) at human DGKζ worked out at 0.032 µM; on human DGKα, 0.36 µM.

Consider `CC[C@@H]1CN(c2cc(=O)n(C)c3ccc(C#N)nc23)[C@@H](C)CN1C(C)c1ccc(C(F)(F)F)cc1F` (single isomer, unassigned) [Example 1086], for which the EC50 with Human venous whole blood worked out at 2.5 µM. Besides, the IC50 at human DGKζ was 2.1 µM; at human DGKα, 6.2 µM.

`CC[C@@H]1CN(c2cc(=O)n(C)c3ccc(C#N)nc23)[C@@H](C)CN1C(C)c1ccc(F)c(F)c1` (single isomer, unassigned) [Example 1091]: in the test with Human venous whole blood, the EC50 was 0.14 µM. The IC50 on human DGKζ amounted to 0.11 µM; on human DGKα, 0.23 µM.

`CC[C@@H]1CN(c2cc(=O)n(C)c3ccc(C#N)nc23)[C@@H](C)CN1C(C)c1ccc(F)c(F)c1` (single isomer, unassigned) [Example 1092]: the EC50 in the test with Human venous whole blood amounted to 3.2 µM. Further, the results for the IC50 at human DGKζ and at human DGKα were 4 µM and 3.7 µM, respectively.

With `CC[C@@H]1CN(c2cc(=O)n(C)c3ccc(C#N)nc23)[C@@H](C)CN1C(C)c1ccc(C(F)(F)F)cc1` (single isomer, unassigned) [Example 1093], the EC50 in the test with Human venous whole blood (Homo sapiens, 24 h) turned out to be 0.13 µM. For the same molecule, the values for the IC50 on human DGKζ and on human DGKα were 0.18 µM and 0.25 µM, respectively.

For the molecule `CC[C@@H]1CN(c2cc(=O)n(C)c3ccc(C#N)nc23)[C@@H](C)CN1C(c1ccc(F)cc1)c1ccc(C(F)(F)F)cn1` (single isomer, unassigned) [Example 1106], the EC50 with Human venous whole blood was 0.52 µM. For the same molecule, the IC50 at human DGKζ was 0.12 µM; at human DGKα it was 0.27 µM.
